Test results published in patent publication US20210393616A1, “PHARMACEUTICAL COMPOSITIONS AND METHODS FOR TREATING PSYCHOSIS” (UNIVERSITA' DEGLI STUDI DI CAGLIARI, priority 2018, published 2021).

Columns and labels:
human D2long receptor = biological target: T1, human D2long receptor (Homo sapiens, UniProt P14416); experiment: Replacement of [3H]methyl-spiperone binding from human D2long receptor expressed by HEK-293 cells
T1 construct: expressed in transfected cells; host or cells: HEK-293
Description: In particular, the receptor binding study was conducted by analysing the ability to replace the binding of [^3H]methyl-spiperone from the human D2long receptor expressed by HEK-293 cells (Hall, D. A. and Strange, P. G., 1997, Brit. J. Pharmacol. 121:731-736).

D2 receptors = experiment: Contractility of the rabbit ear artery, antagonism of the selective D2 agonist quinpirol; conditions: for antagonism of the effect of the selective D2 agonist quinpirol: 100 nM
rats [1] = experiment: Amphetamine-induced hypermotility test; assay type: in vivo, rat; conditions: 3 mg/kg i.p.; amphetamine 2.5 mg/kg i.p.; FIG. 1
Description: Some behavioural tests were also conducted to identify possible antipsychotic properties of RS-79948-197.

rats [2] = experiment: Quinpirol-induced stereotypies; assay type: in vivo, rat
Excerpt: The data are the average of 6 rats and are expressed in total counts. *P<0.01 vs. treatment with physiological saline (Student's t-test).

rats [3] = experiment: Pre-pulse inhibition (PPI) deficit induced by MK-801; assay type: in vivo, rat; conditions: RS-79948-197 3 mg/kg i.p.; MK-801 0.1 mg/kg i.p.; FIG. 3
Description: The data are the average of 4-8 rats. *P<0.05, **P<0.01 vs. VEH+MK (one-way ANOVA followed by Tukey's Test).
The activity of RS-79948-197 was also evaluated on the deficit of “pre-pulse inhibition” (PPI) induced by MK-801, an antagonist of NMDA receptors of glutamate. As already mentioned previously, this latter test is considered the “gold standard” for the evaluation of the possible atypical antipsychotic activity of a drug and is predictive of the efficacy on negative symptoms, as well as on positive ones, of schizophrenia.

[4] = test system: extracellular levels of dopamine; experiment: Microdialysis of extracellular dopamine in rat medial prefrontal cortex; assay type: in vivo; conditions: free-moving rats, RS-79948-197 3 mg/kg i.p., clozapine 2.5 mg/kg i.p., FIG. 4
Description: The drugs were administered at time T=60 min, as indicated by the arrow. The values are expressed as a percentage of the basal value (mean+/−SEM).
Also, the effect of RS-79948-197 on the extracellular levels of dopamine in the rat prefrontal cerebral cortex, through microdialysis in free-moving rats, was further evaluated. As can be clearly seen in the appended FIG. 4, the effects of the two drugs are substantially overlapping, as both have increased the extracellular concentration of dopamine up to about 250% of the respective basal value. Given the hypothesis of cortical hypodopaminergy in the etiopathogenesis of schizophrenia, the ability of a drug to increase the cortical dopamine is considered a favourable effect for its antipsychotic properties.

T1 sequence (P14416 whole entry): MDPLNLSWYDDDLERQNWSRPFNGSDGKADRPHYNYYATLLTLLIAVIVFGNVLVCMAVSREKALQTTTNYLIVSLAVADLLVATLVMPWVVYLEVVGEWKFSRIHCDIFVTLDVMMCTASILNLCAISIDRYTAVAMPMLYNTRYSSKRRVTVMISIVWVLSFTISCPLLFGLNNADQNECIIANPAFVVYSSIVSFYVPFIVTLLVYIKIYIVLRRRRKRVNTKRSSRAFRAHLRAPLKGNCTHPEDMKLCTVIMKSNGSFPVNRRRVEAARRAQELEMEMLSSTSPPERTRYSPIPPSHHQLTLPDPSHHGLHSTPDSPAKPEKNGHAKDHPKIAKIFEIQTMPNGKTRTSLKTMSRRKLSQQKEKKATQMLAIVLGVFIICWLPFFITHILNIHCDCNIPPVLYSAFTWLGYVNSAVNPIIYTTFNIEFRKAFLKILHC

SMILES | affinity relative to that of clozapine (human D2long receptor; human D2long receptor) | Ki (human D2long receptor; human D2long receptor expressed by HEK-293 cells, read-out: Ki, inhibition of [3H]methyl-spiperone binding) [nM] | antagonism of the effect of the selective D2 agonist quinpirol (D2 receptors) | effect on quinpirol-induced release at higher concentrations (D2 receptors; higher concentrations than 100 nM) | total distance travelled by rats in 120 minutes (rats [1]) | stereotypies induced by quinpirol (rats [2]; 3 mg/kg i.p., quinpirol 0.5 mg/kg i.p., FIG. 2) | extrapyramidal effects per se (rats [2]; rats) | PPI deficit induced by MK-801 (rats [3]) | extracellular concentration of dopamine, percentage of basal value [4]
CCS(=O)(=O)N1CCC[C@@H]2CN3CCc4cc(OC)ccc4[C@@H]3C[C@@H]21.Cl [RS-79948-197, (8aR,12aS,13aS)-5,8,8a,9,10, 11, 12, 12a, 13, 13a-decahydro-3-methoxy-12-(ethylsulphonyl)-6H-isoquino[2,1-g][1,6]naphthyridine] | about twice | 95 | 70% | completely cancelled | significantly decreased | effectively reduced | without inducing per se extrapyramidal effects | effectively reduced | about 250 % of the respective basal value
CCN1CCCC1CNC(=O)c1cc(S(N)(=O)=O)ccc1OC (stereo not shown) [sulpiride, reference compound] |  |  | about 40% |  |  |  |  |  | 
